# Read-outs that look alike come from different tables or passages of the source.
# Columns and labels:
# [1] = system: chimeric replicon with genotype 3a NS5B; assay: microbe, parasite or virus in culture; format: cell-based, HCV genotype 3a; settings: Hepatitis C virus, read-out: 3a chimera 5% FBS EC50
# [2] = system: HCV 1b-BB7 subgenomic replicon; assay: microbe, parasite or virus in culture; format: cell-based, HCV genotype 1b; settings: Hepatitis C virus, stable replicon
# [3] = system: chimeric replicon with genotype 2b NS5B; assay: microbe, parasite or virus in culture; format: cell-based, HCV genotype 2b; settings: Hepatitis C virus, read-out: 2b chimera 5% FBS EC50
# [4] = system: chimeric replicon with 2a-J6CF-derived NS5B; assay: microbe, parasite or virus in culture; format: cell-based, HCV genotype 2a; settings: Hepatitis C virus, read-out: 2a chimera 5% FBS EC50
# [5] = system: chimeric replicon with genotype 4a NS5B; assay: microbe, parasite or virus in culture; format: cell-based, HCV genotype 4a; settings: Hepatitis C virus, read-out: 4a chimera 5% FBS EC50
# [6] = system: HCV 1a-H77 transient subgenomic replicon in Huh-7 derived cell line; assay: microbe, parasite or virus in culture; format: cell-based, HCV genotype 1a; settings: Hepatitis C virus, Huh-7; transient replicon, 5% FBS; read-out: Transient Replicon 1a H77 5% FBS EC50
# In short: (§1)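 Transient format: T7-transcribed replicon RNA lacking Neo, electroporated into Huh-7-derived cells (5×10^3/well), input RNA checked by luciferase at 4 h. Three-fold compound dilution series, 0.5% DMSO, 4 days at 37° C; EC50 from luciferase signal in lysed cells.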
# [7] = system: HCV 1a-H77-C316Y transient subgenomic replicon in Huh-7 derived cell line; assay: microbe, parasite or virus in culture; format: cell-based, HCV genotype 1a; settings: for EC50: Hepatitis C virus, Huh-7, read-out: Transient Replicon 1a H77-C316Y 5% FBS EC50; for Transient Replicon Fold Resistance C316Y/1a: ratio of transient replicon EC50s, C316Y / 1a H77
# In short: as §1
# [8] = system: HCV 1a-H77 subgenomic replicon; assay: microbe, parasite or virus in culture; format: cell-based, HCV genotype 1a; settings: Hepatitis C virus, stable replicon
# [9] = target: T1, HCV NS5B polymerase 1a-H77 (Hepatitis C virus genotype 1a, UniProt P27958); assay: biochemical; set-up: species or system HCV genotype 1a; settings: enzyme, strain 1a H77; read-out: HCV Polymerase Strain 1a H77 IC50
# T1 construct: six-histidine tag; made in house; host or cells: E. coli
# In short: (§2)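 Recombinant NS5B (residues 1–570, His-tagged, E. coli-expressed) copied 5 nM of a 2.1 kb HCV 1b negative-strand 3′-end RNA template with 20 μM CTP, 20 μM ATP and 0.284 μM [3H]UTP for 3 h at 30 °C. Spermine-precipitated RNA was filter-captured and counted, and IC50 was fitted by nonlinear regression.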
# [10] = system: HCV NS5B polymerase 1a-H77-C316Y; assay: biochemical; set-up: species or system HCV genotype 1a; settings: ratio of enzyme IC50s, 1a H77-C316Y / 1a H77
# In short: as §2
# [11] = target: T2, HCV NS5B polymerase 1a-H77-C316Y (Hepatitis C virus genotype 1a, UniProt P27958, C2736Y); assay: biochemical; set-up: species or system HCV genotype 1a
# T2 construct: six-histidine tag; made in house; host or cells: E. coli
# In short: as §2
# [12] = target: T3, HCV NS5B polymerase 1b BK strain (Hepatitis C virus genotype 1b, UniProt P26663); assay: HCV NS5B polymerase enzymatic inhibition assay, strain 1b BK; format: biochemical; settings: enzyme, strain 1b BK; read-out: HCV Polymerase Strain 1b BK IC50
# T3 construct: six-histidine tag; made in house; host or cells: E. coli
# In short: as §2
# [13] = strain 1b BB7, 5% FBS + 40% human plasma, read-out: 1b BB7 5% FBS + 40% Human Plasma EC50
# [14] = strain 1b BB7, 5% FBS, no human plasma, read-out: 1b BB7 5% FBS EC50
# [15] = strain 1b BB7, 5% FBS, read-out: 1b BB7 5% FBS EC50
# [16] = 5% FBS, absence of human plasma, read-out: Stable Replicon 1a H77 5% FBS EC50
# [17] = strain 1a H77, 5% FBS + 40% human plasma, read-out: 1a H77 5% FBS + 40% Human Plasma EC50
# [18] = strain 1a H77, 5% FBS, no human plasma, read-out: 1a H77 5% FBS EC50
# [19] = strain 1a H77, 5% FBS, read-out: 1a H77 5% FBS EC50
# T3 sequence (P26663 2420-2989): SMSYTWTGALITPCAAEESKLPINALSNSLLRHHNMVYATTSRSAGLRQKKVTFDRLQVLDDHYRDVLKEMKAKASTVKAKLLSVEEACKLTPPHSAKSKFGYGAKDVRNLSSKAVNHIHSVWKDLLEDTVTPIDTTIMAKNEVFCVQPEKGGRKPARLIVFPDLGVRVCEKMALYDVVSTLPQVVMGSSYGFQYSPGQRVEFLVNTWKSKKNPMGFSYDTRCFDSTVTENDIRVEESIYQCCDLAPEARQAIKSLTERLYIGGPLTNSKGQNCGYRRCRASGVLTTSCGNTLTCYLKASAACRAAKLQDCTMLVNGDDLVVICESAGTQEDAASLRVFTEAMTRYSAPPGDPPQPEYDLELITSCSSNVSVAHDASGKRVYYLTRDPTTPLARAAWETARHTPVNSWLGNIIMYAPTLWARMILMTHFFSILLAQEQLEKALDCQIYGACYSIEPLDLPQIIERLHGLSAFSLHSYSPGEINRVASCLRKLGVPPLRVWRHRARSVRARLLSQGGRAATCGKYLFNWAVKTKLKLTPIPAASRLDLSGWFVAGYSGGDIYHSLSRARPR
# T1 sequence (P27958 2421-2990): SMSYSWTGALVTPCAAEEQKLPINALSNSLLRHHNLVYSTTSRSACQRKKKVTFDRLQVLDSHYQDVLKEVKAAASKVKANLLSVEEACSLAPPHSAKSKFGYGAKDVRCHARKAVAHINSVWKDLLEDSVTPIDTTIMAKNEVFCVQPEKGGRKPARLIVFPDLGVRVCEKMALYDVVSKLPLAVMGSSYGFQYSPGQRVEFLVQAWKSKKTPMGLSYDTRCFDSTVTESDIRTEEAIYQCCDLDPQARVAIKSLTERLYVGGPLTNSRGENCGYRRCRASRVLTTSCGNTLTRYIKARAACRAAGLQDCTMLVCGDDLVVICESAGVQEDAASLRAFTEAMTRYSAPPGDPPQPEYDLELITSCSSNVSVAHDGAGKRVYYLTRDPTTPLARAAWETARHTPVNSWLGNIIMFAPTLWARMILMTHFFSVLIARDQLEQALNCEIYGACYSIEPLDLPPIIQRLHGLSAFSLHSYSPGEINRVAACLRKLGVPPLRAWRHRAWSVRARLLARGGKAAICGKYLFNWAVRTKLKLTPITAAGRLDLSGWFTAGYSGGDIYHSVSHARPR
# T2 sequence (P27958 2421-2990 C2736Y): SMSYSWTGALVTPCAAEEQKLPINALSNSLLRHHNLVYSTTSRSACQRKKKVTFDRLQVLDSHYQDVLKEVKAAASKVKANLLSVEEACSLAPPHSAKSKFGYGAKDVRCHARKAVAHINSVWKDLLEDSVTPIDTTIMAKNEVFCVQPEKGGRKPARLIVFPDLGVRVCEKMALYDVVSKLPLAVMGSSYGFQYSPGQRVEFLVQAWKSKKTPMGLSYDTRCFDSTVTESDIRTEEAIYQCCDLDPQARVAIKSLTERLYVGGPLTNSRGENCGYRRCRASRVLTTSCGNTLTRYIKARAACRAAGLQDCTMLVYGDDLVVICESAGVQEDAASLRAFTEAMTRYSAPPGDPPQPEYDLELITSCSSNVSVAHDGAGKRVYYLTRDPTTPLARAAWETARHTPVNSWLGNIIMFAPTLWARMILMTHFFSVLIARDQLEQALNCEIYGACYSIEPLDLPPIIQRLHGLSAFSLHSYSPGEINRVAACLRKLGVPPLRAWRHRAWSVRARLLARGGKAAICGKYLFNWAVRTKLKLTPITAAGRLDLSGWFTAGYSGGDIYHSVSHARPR
SMILES,EC50 [1] [nM],"EC50 [2, 13] [nM]","EC50 [2, 14] [nM]","EC50 [2, 15] [nM]",EC50 [3] [nM],EC50 [4] [nM],EC50 [5] [nM],EC50 [6] [nM],EC50 [7] [nM],Transient Replicon Fold Resistance C316Y/1a [7] [fold],"EC50 [8, 16] [nM]","EC50 [8, 17] [nM]","EC50 [8, 18] [nM]","EC50 [8, 19] [nM]",IC50 [9] [nM],C316Y/1a Fold Resistance [10] [fold],IC50 [11] [nM],IC50 [12] [nM]
"CS(=O)(=O)N(CCCC(N)=O)c1cc2oc(-c3ccc(F)cc3)c(-c3ncc[nH]3)c2cc1C1CC1 [Example 108, 4-{[5-cyclopropyl-2-(4-fluorophenyl)-3-(1H-imidazol-2-yl)-1-benzofuran-6-yl](methylsulfonyl)amino}butanamide]",11,57,10.1,10.1,187,156,104,7.9,203,26,15.3,49,15.3,15.3,3.5,17,60,28
"CS(=O)(=O)N(CCCN1CCS(=O)(=O)CC1)c1cc2oc(-c3ccc(F)cc3)c(C3=NOCCN3)c2cc1C1CC1 [Example 114, N-[5-cyclopropyl-3-(5,6-dihydro-4H-1,2,4-oxadiazin-3-yl)-2-(4-fluorophenyl)-1-benzofuran-6-yl]-N-[3-(1,1-dioxidothiomorpholin-4-yl)propyl]methanesulfonamide]",56.2,377,33,33,331,299,307,21.8,238,11,27.1,406,27.1,27.1,7,10,70,43
"CC(C)(C#N)CCCCN(c1cc2oc(-c3ccc(F)cc3)c(C3=NOCCN3)c2cc1C1CC1)S(C)(=O)=O [Example 115, N-(5-cyano-5-methylhexyl)-N-[5-cyclopropyl-3-(5,6-dihydro-4H-1,2,4-oxadiazin-3-yl)-2-(4-fluorophenyl)-1-benzofuran-6-yl]methanesulfonamide]",30,127,14,14,146,167,124,7.3,90.7,12,9.5,38,9.5,9.5,3.9,10,37,33
"CCOC(=O)CCCN(c1cc2oc(-c3ccc(F)cc3)c(C3=NOCCN3)c2cc1C1CC1)S(C)(=O)=O [Example 121, ethyl 4-{[5-cyclopropyl-3-(5,6-dihydro-4H-1,2,4-oxadiazin-3-yl)-2-(4-fluorophenyl)-1-benzofuran-6-yl](methylsulfonyl)amino}butanoate]",121,388,68,68,1000,1000,988,28,287,10,38.7,311,38.7,38.7,3.5,12,40,55
"CS(=O)(=O)CCCCN(c1cc2oc(-c3ccc(F)cc3)c(C3=NOCCN3)c2cc1C1CC1)S(C)(=O)=O [Example 122, N-[5-cyclopropyl-3-(5,6-dihydro-4H-1,2,4-oxadiazin-3-yl)-2-(4-fluorophenyl)-1-benzofuran-6-yl]-N-[4-(methylsulfonyl)butyl]methanesulfonamide]",32,81,11,11,127,130,83.9,6.7,62.3,9,8.4,50,8.4,8.4,6.9,7,46,25
CS(=O)(=O)N(CCC1CCS(=O)(=O)C1)c1cc2oc(-c3ccc(F)cc3)c(C3=NOCCN3)c2cc1C1CC1 (stereo not drawn) [Example 123],36.4,211,18,18,105,162,58.1,10.7,78.9,7,10.9,108,10.9,10.9,9.5,8,76,14
"CS(=O)(=O)N(CCCS(N)(=O)=O)c1cc2oc(-c3ccc(F)cc3)c(C3=NOCCN3)c2cc1C1CC1 [Example 124, 3-{[5-cyclopropyl-3-(5,6-dihydro-4H-1,2,4-oxadiazin-3-yl)-2-(4-fluorophenyl)-1-benzofuran-6-yl](methylsulfonyl)amino}propane-1-sulfonamide]",139,984,44,44,1000,1000,962,33.4,276,8,44.3,501,44.3,44.3,4.5,8,37,29
"CS(=O)(=O)N(CCCN1CCOCC1)c1cc2oc(-c3ccc(F)cc3)c(C3=NOCCN3)c2cc1C1CC1 [Example 126, N-[5-cyclopropyl-3-(5,6-dihydro-4H-1,2,4-oxadiazin-3-yl)-2-(4-fluorophenyl)-1-benzofuran-6-yl]-N-[3-(morpholin-4-yl)propyl]methanesulfonamide]",70,379,30,30,453,350,360,33.6,260,8,25.3,258,25.3,25.3,21.5,4,91,111
"CS(=O)(=O)N(CCCO)c1cc2oc(-c3ccc(F)cc3)c(C3=NOCCN3)c2cc1C1CC1 [Example 137, N-[5-cyclopropyl-3-(5,6-dihydro-4H-1,2,4-oxadiazin-3-yl)-2-(4-fluorophenyl)-1-benzofuran-6-yl]-N-(3-hydroxypropyl)methanesulfonamide]",33,113,17,17,214,182,172,10.1,107,11,15,59,15,15,4.2,9,39,79

# Source: US20160355530A1, “HEPATITIS C INHIBITORS AND USES THEREOF” (AbbVie Inc., priority 2010, published 2016)
